# From patent US10738051B2, “β-lactamase inhibitors” (priority 2016, dated 2020)
# What was measured:
# [1] = system: E. coli ATCC BAA-2523 (OXA-48); experiment: In vitro synergistic inhibitory concentration (SIC) assay; type: cell-based; details: Escherichia coli, ATCCBAA2523, 37° C. 20 hours, read-out: minimum inhibitory concentration, used alone
# Description: (§1) 2) 30 μL dimethyl sulfoxide was added to columns 2-12 of the 96-V well plate. 60 μL prepared ceftazidime was added to column 1. 30 μL ceftazidime was transferred from column 1 to column 2 and mixed with a pipette. The same operation was continued until column 11, and 30 μL of the mixture in column 11 was discarded. This was the compound mother plate.
# (§2) Mix the liquid in the mother plate with a pipette.
# (§3) 4) One day before the experiment, the bacterial glycerol stock which was stored in a −80° C. refrigerator was streaked on a trypticase soy agar plate (TSA), and the plate was incubated in a 37° C. incubator overnight. On the day of the experiment, the monoclonal bacterial was suspended in physiological saline and the turbidity of which was adjusted to 0.5 McFarland standard, corresponding to 1×10^8 CFU/ml. This suspension was diluted 100-fold to 1×10^6 CFU/mL with caton-adjusted Mueller-Hnton broth (CAMHB), which was used as an inoculation fluid.
# (§4) 5) a 96-U plate was used as a test plate. Firstly, adding 98 μL CAMHB to each well of the test plate and transferring 2 μL solution in the mother plate to the test plate. 100 μL inoculation fluid was added to each well of the test plate.
# (§5) 6) The test plate was incubated at 37° C. for 20 hours.
# (§6) The above-mentioned method was also used to determine the antibacterial activity of the test compound or the antibiotic when used alone.
# [2] = system: K. pneumoniae ATCC BAA-2524 (OXA-48); experiment: as above; type: cell-based; details: Klebsiella pneumoniae, ATCCBAA2524, 37° C. 20 hours, read-out: minimum inhibitory concentration, used alone
# Description: as §1, §2, §3, §4, §5, §6
# [3] = system: Klebsiella pneumoniae (ATCC BAA-1705, KPC-2); experiment: Mouse lung infection model; type: in vivo, CD-1 mice; details: ip, combined with ceftazidime
# Description: Female CD-1 mice of about 7 weeks old, weighing 26-28 g; cyclophosphamide was injected at a dose of 150 mg/kg 4 days before infection, and further 100 mg/kg 1 day before infection; the bacteria infected was Klebsiella pneumoniae (ATCC BAA-1705, KPC-2). Compound 1 and the reference compound OP-0595 were synthesized in the laboratory.
# Female CD-1 mice were infected with Klebsiella pneumoniae by intranasal instillation. Each mouse was instilled with 50 μL bacterial fluid through nasal cavity at a dose of 3.14E+07 CFU per mouse. At 2 h, 4 h, 6 h and 8 h after infection, each group of mice were treated with a corresponding compound or combined compounds by intraperitoneal injection.
# At 10 h after infection, the mice in group 1, 2 and 3 were euthanized, and the lung was taken out and placed in a 50 mL centrifuge tube containing 10 mL sterile normal saline, the tube was placed on wet ice and transferred to BSL-2 laboratory for CFU counting. At 20 h after infection, the mice in group 4, 5 and 6 were euthanized and treated according to the same procedure.
# The lungs were ground with an IKA T10 homogenizer (the maximum speed was 20S, repeated once). […] After 24 hours, the plate was taken out and the number of single colonies grown in each homogenate with a gradient dilution, and the amount of bacterial load in the lung of each mouse was calculated.
structure (smiles),measurement,setting,value
N=C(N)NOCCONC(=O)[C@@H]1CC[C@@H]2CN1C(=O)N2OS(=O)(=O)O [Compound 1],MIC,[1],8 µg/mL
same,MIC,[2],> 128 µg/mL
same,reduction of the amount of bacterial load in the lung compared with the reference group of OP-0595,"[3]; female CD-1 mice, K. pneumoniae ATCC BAA-1705 (KPC-2), 25/6.25 mpk and 50/12.5 mpk",0.5-1.5 logs
same,potency compared with reference compound OP-0595,[3]; mouse lung infection model,significantly more potent
